Experimental data taken from patent US20090093468A1, “Peptide Deformylase Inhibitors” (priority 2004, published 2009).
Where two headings read alike, the source gives them in different places.

Key:
[1] = target: bacterial PDF (peptide deformylase), enzyme from E. coli (Escherichia coli, UniProt P0A6K3); assay: Bacterial peptide deformylase (PDF) assay, enzyme from E. coli; type: biochemical
Method: (§1) The IC50 value of a compound of the invention as a bacterial PDF inhibitor was determined using the following assay.
(§2) Assay buffer (pH 7.2): 0.1 M MOPS pH was adjusted to 7.2 with NaOH, containing 0.25 M NaCl, 100 microgram/mL catalase and 1 mg/mL BSA.
(§3) Enzyme mix: 670 ng/mL of enzyme (to finally have 50 ng of enzyme per well).
(§4) Substrate: 10 mM f-Met-Ala was made up from 200 mM f-Met-Ala in methanol with assay buffer.
(§5) TNBS solution: Freshly dilute 1 M TNBS stock solution to 1:10 with water.
(§6) Buffer C: 0.5 M borate buffer adjusted to pH 9.5 with NaOH.
(§7) Buffer D: 0.2 ml of freshly prepared 0.5 M Na2SO3 was mixed with 9.8 mL of 0.5M NaH2PO4.
(§8) Inhibitor solution: 2 mM Sodium 4-(hydroxymercurio) benzoate in assay buffer.
(§9) The assay was performed in a 96 Microtiter plate containing test compound. To each well containing test compound mix was added 75 microliter of enzyme mix from E. coli followed, by the addition of 25 microliter of substrate mix. The resulting mix was incubated for 30 minutes at room temperature with shaking. TNBS solution (50 microliter/well) was added and the resulting mixture was incubated for 15 minutes under shaking. Buffer C was then added (20 microliter/well). After incubating at room temperature for 15 minutes under shaking, buffer D was added (50 microliter/well). The optical […] was then measured at 420 nm, thereby determining the IC50 value.

[2] = target: T1, bacterial PDF (peptide deformylase), enzyme from S. aureus (Staphylococcus aureus, UniProt P68826); assay: Bacterial peptide deformylase (PDF) assay, enzyme from S. aureus; type: biochemical
T1 sequence (P68826 1-183): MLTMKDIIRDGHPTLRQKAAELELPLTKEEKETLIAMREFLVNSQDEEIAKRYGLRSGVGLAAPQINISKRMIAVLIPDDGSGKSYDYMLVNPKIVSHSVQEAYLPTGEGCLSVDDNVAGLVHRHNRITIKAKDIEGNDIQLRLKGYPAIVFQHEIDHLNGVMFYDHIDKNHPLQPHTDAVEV
Method: as §1, §2, §3, §4, §5, §6, §7, §8, §9
The assay was repeated using enzyme mix from S. aureus.

[3] = PDF enzyme from S. aureus, substrate f-Met-Ala, TNBS readout at 420 nm, read-out: IC50 (enzyme from S. aureus)

Chain of bacterial PDF (peptide deformylase), enzyme from E. coli (P0A6K3 whole entry): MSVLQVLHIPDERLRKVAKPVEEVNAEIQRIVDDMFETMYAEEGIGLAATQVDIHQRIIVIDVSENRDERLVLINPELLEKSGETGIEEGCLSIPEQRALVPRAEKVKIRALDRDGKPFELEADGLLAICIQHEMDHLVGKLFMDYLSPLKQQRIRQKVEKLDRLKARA

Row | Structure (SMILES) | IC50 [1] [µM] | IC50 [2, 3] [µM] | IC50 ([1]; PDF enzyme from E. coli, substrate f-Met-Ala, TNBS readout at 420 nm, read-out: IC50 (enzyme from E. coli)) [µM] | IC50 [2] [µM]
1 | CCN1CC(CC(=O)NO)S(=O)(=O)c2ccc(C(=O)NCc3cccs3)cc21 (centres unmarked) [Example 29, 4-Ethyl-2-hydroxycarbamoylmethyl-1,1-dioxo-1,2,3,4-tetrahydro-1λ^6-benzo[1,4]thiazine-6-carboxylic acid (thiophen-2-ylmethyl)-amide] | 9.5 | 3.4 |  | 
2 | CCN1CC(CC(=O)NO)S(=O)(=O)c2ccc(C(=O)Nc3cc[nH]n3)cc21 (centres unmarked) [Example 30, 4-Ethyl-2-hydroxycarbamoylmethyl-1,1-dioxo-1,2,3,4-tetrahydro-1λ^6-benzo[1,4]thiazine-6-carboxylic acid (1H-pyrazol-3-yl)-amide] | 11.5 | 30.8 |  | 
3 | CCN1CC(CC(=O)NO)S(=O)(=O)c2ccc(C(=O)Nc3nccs3)cc21 (centres unmarked) [Example 31, 4-Ethyl-2-hydroxycarbamoylmethyl-1,1-dioxo-1,2,3,4-tetrahydro-1λ^6-benzo[1,4]thiazine-6-carboxylic acid thiazol-2-ylamide] | 12.3 | 20.8 |  | 
4 | CCN1CC(CC(=O)NO)S(=O)(=O)c2ccc(C(=O)N3CCN(C)CC3)cc21 (centres unmarked) [Example 32, 2-[4-Ethyl-6-(4-methyl-piperazine-1-carbonyl)-1,1-dioxo-1,2,3,4-tetrahydro-1λ^6-benzo[1,4]thiazin-2-yl]-N-hydroxy-acetamide] | > 200 | 128 |  | 
5 | CCN1CC(CC(=O)NO)S(=O)(=O)c2ccc(C(=O)Nc3cc(-c4cccs4)n[nH]3)cc21 (centres unmarked) [Example 33, 4-Ethyl-2-hydroxycarbamoylmethyl-1,1-dioxo-1,2,3,4-tetrahydro-1λ^6-benzo[1,4]thiazine-6-carboxylic acid (5-thiophen-2-yl-2H-pyrazol-3-yl)-amide] | 0.9 | 3 |  | 
6 | CCN1CC(CC(=O)NO)S(=O)(=O)c2ccc(C(=O)NC3CC4CCC(C3)N4C)cc21 (centres unmarked) [Example 34] |  |  | 13.8 | 6
7 | O=C(CC1CN(CC2CC2)c2ccccc2S1(=O)=O)NO (centres unmarked) [Example 35] | 2.1 | 4.8 |  | 
8 | O=C(CC1CN(CC2CCC2)c2ccccc2S1(=O)=O)NO (centres unmarked) [Example 36, 2-(4-Cyclobutylmethyl-1,1-dioxo-1,2,3,4-tetrahydro-1λ^6-benzo[1,4]thiazin-2-yl)-N-hydroxy-acetamide] | 3.3 | 3.8 |  | 
9 | O=C(CC1CN(CC2CCCC2)c2ccccc2S1(=O)=O)NO (centres unmarked) [Example 37, 2-(4-Cyclopentylmethyl-1,1-dioxo-1,2,3,4-tetrahydro-1λ^6-benzo[1,4]thiazin-2-yl)-N-hydroxy-acetamide] | 11.1 | 13.9 |  | 
10 | O=C(CC1CN(CC2CCCCC2)c2ccccc2S1(=O)=O)NO (centres unmarked) [Example 38, 2-(4-Cyclohexylmethyl-1,1-dioxo-1,2,3,4-tetrahydro-1λ^6-benzo[1,4]thiazin-2-yl)-N-hydroxy-acetamide] | 33.2 | 18.1 |  | 
